Values after ≈ are worked out from the molar mass of the structure shown. Where a SMILES comes first, the peptide text is derived from it.

One experiment deals with E. coli ATCC 25922. The class given is cell-based, Escherichia coli. The settings on record: ATCC 25922. Summed up: (§1)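 MIC taken as lowest peptide level showing no visible growth after 20-24 h at 37° C. Twofold series 128-0.5 μg/mL in Mueller-Hinton broth, polypropylene plates, final inoculum 2-8×10^5 cfu/mL, per CLSI with cationic-peptide adaptations.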
For another experiment, the system named is S. aureus ATCC 29213. The class given is cell-based, Staphylococcus aureus. The following applies: ATCC 29213. The gist of the method:
as §1

The test system of experiment [1] is E. coli ATCC 25922, Salmonella Enteritidis, S. aureus ATCC 29213. Briefly: Broth microdilution, panel result (at least one / all strains), Example 2. The settings on record: Table 14; against at least one of E. coli ATCC 25922, Salmonella Enteritidis, S. aureus ATCC 29213. The class given is cell-based. Also on record: key to inhibitory activity (asterisk): *Indicates inhibitory activity. The procedure:
The antimicrobial activity of the putative AMPs was determined by a broth microdilution assay as described by the Clinical and Laboratory Standards Institute, with the published adaptations for testing of cationic peptides. Escherichia coli 25922 and Staphylococcus aureus 29213 isolates were purchased from the American Type Culture Collection (ATCC; Manassas, VA, USA). A human clinical isolate of Salmonella enterica serovar Enteritidis was provided by the BC Centre for Disease Control. Bacteria from stocks stored at −80° C. were streaked onto nonselective Columbia blood agar with 5% sheep blood (Oxoid) and incubated overnight at 37° C. Next, 2-4 colonies were streaked onto a new agar plate to ensure uniform health of colonies used in the broth microdilution assay. Isolated colonies were suspended in MHB and the optical density was measured with a spectrophotometer to create an initial inoculum concentration of approximately 1×10^8 cfu/mL. The inoculum was diluted 1:250 to a final concentration of 2-8×10^5 cfu/mL, which was confirmed by performing a Total Viability Count (TVC). The TVC consisted of plating a 1:1000 dilution of the final inoculum on nonselective media and was also used to confirm the health and purity of the inoculum in each trial.
Lyophilized 80 μg peptide aliquots synthesized by GenScript (Piscataway, NJ, USA) were resuspended to 1.28 mg/mL with UltraPure water (Thermo Fisher Scientific, Waltham, MA, USA) and serially diluted in polypropylene 96-well microtiter plates (Greiner Bio-One #650261, Kremsmunster, Austria) from 128 down to 0.5 μg/mL. Two columns per plate were reserved for growth and sterility controls. Inoculum was added to the wells containing the peptide and the growth control. Plates were incubated for 20-24 h at 37° C. The minimum inhibitory concentration (MIC) was determined as the lowest peptide concentration where there was no visible bacterial growth.
Background: Broth dilution looks for growth in wells or tubes with falling amounts of substance.

Experiment [2] relates to Salmonella enterica serovar Enteritidis (human clinical isolate). It counts as cell-based. The following applies: serovar Enteritidis (human clinical isolate). Summed up: as §1

For the compound `CC[C@H](C)[C@H](NC(=O)[C@@H]1CCCN1C(=O)[C@H](CS)NC(=O)[C@H](C)NC(=O)[C@@H](N)Cc1ccccc1)C(=O)NCC(=O)N[C@@H](Cc1ccccc1)C(=O)N[C@@H](Cc1ccccc1)C(=O)N[C@@H](CCCNC(=N)N)C(=O)N[C@@H](CC(C)C)C(=O)N[C@@H](CCCCN)C(=O)N[C@@H](CCCNC(=N)N)C(=O)O` [CaCa1, FACPIGFFRLKR] (H-FACPIGFFRLKR-OH; N-terminus and C-terminus assumed), in the experiment with E. coli ATCC 25922, the “MIC (ug/mL) E. coli” value is 128/>128/>128 ug/mL. In the experiment on S. aureus ATCC 29213, the “MIC (ug/mL) S. aureus” value is 128/>128/>128 ug/mL. Moreover, in experiment [1], the “inhibitory activity (asterisk)” value is 826.* FACPIGFFRLKR. In addition, in experiment [2], the “MIC (ug/mL) S. Enteritidis” value is 128/>128/>128 ug/mL.
With `CC[C@H](C)[C@H](NC(=O)CNC(=O)[C@H](C)NC(=O)[C@@H](NC(=O)[C@@H](NC(=O)[C@H](CO)NC(=O)[C@H](C)NC(=O)[C@@H](NC(=O)[C@H](CCCCN)NC(=O)[C@H](CCCCN)NC(=O)[C@H](C)NC(=O)[C@@H](NC(=O)[C@H](CC(=O)O)NC(=O)[C@H](CC(C)C)NC(=O)[C@H](Cc1c[nH]c2ccccc12)NC(=O)CN)[C@@H](C)CC)C(C)C)C(C)C)C(C)C)C(=O)N[C@H](C(=O)N[C@@H](CCCCN)C(=O)N[C@@H](CCCNC(=N)N)C(=O)O)C(C)C` [LiVe1, GWLDIAKKVASVVAGIVKR] (H-GWLDIAKKVASVVAGIVKR-OH; N-terminus and C-terminus assumed), the “MIC (ug/mL) E. coli” value with E. coli ATCC 25922 was in the range of 4 to 8 µg/mL. The “MIC (ug/mL) S. aureus” value with S. aureus ATCC 29213 fell in the range of 16 to 32 µg/mL. In experiment [1], the “inhibitory activity (asterisk)” value is reported as 37.* GWLDIAKKVASVVAGIVKR. In experiment [2], the “MIC (ug/mL) S. Enteritidis” value stood at 32 µg/mL (≈ 15.9 µM).
For `CC[C@H](C)[C@H](NC(=O)[C@H](CC(=O)O)NC(=O)[C@H](CC(C)C)NC(=O)[C@H](Cc1c[nH]c2ccccc12)NC(=O)CN)C(=O)N[C@@H](C)C(=O)N[C@@H](CCCCN)C(=O)N[C@@H](CCCCN)C(=O)N[C@H](C(=O)N[C@@H](C)C(=O)N[C@@H](CO)C(=O)N[C@H](C(=O)N[C@H](C(=O)N[C@@H](C)C(=O)NCC(=O)N[C@@H](CC(C)C)C(=O)NCC(=O)N[C@@H](CCCCN)C(=O)N[C@@H](CCCNC(=N)N)C(=O)O)C(C)C)C(C)C)C(C)C` [LiVe2, GWLDIAKKVASVVAGLGKR] (H-GWLDIAKKVASVVAGLGKR-OH; N-terminus and C-terminus assumed), in the experiment with E. coli ATCC 25922, the “MIC (ug/mL) E. coli” value lay in the range of 4 to 8 µg/mL. In the experiment on S. aureus ATCC 29213, the “MIC (ug/mL) S. aureus” value is 64 µg/mL (≈ 32.5 µM). The “inhibitory activity (asterisk)” value in experiment [1] is 40.* GWLDIAKKVASVVAGLGKR. In addition, in experiment [2], the “MIC (ug/mL) S. Enteritidis” value is 64 to 128 µg/mL.
For the compound `CC(C)C[C@H](NC(=O)[C@H](CCCCN)NC(=O)[C@H](Cc1c[nH]c2ccccc12)NC(=O)[C@H](CC(C)C)NC(=O)[C@@H](NC(=O)[C@H](CC(C)C)NC(=O)[C@H](Cc1ccccc1)NC(=O)[C@H](CC(C)C)NC(=O)[C@@H](N)CCCCN)[C@@H](C)O)C(=O)N[C@@H](CCCCN)C(=O)N[C@@H](CCCNC(=N)N)C(=O)O` [NaVi3, KLFLTLWKLKR] (H-KLFLTLWKLKR-OH; N-terminus and C-terminus assumed), in the experiment with E. coli ATCC 25922, the “MIC (ug/mL) E. coli” value lay in the range of 8 to 16 µg/mL. Further, the “MIC (ug/mL) S. aureus” value with S. aureus ATCC 29213 was 128 µg/mL (≈ 88.5 µM). In experiment [1], the “inhibitory activity (asterisk)” value was 895.* KLFLTLWKLKR. The “MIC (ug/mL) S. Enteritidis” value in experiment [2] was 64 µg/mL (≈ 44.3 µM).
Turning to `CC[C@H](C)[C@H](NC(=O)CNC(=O)[C@H](CO)NC(=O)[C@H](CC(C)C)NC(=O)[C@H](CC(C)C)NC(=O)CN)C(=O)N[C@@H](CC(C)C)C(=O)NCC(=O)N[C@@H](C)C(=O)NCC(=O)N[C@@H](CCCCN)C(=O)N[C@@H](CCCCN)C(=O)N[C@H](C(=O)N[C@H](C(=O)N[C@@H](CS)C(=O)NCC(=O)N[C@@H](Cc1ccccc1)C(=O)N[C@@H](CO)C(=O)NCC(=O)N[C@@H](CC(C)C)C(=O)N[C@@H](CS)C(=O)O)C(C)C)[C@@H](C)CC` [OdMa1] (H-GLLSGILGAGKKIVCGFSGLC-OH; N-terminus and C-terminus assumed), the “MIC (ug/mL) E. coli” value against E. coli ATCC 25922 was in the range of 8 to 16 µg/mL. In addition, the “MIC (ug/mL) S. aureus” value in the experiment with S. aureus ATCC 29213 is 64 µg/mL (≈ 32.1 µM). Besides, the “inhibitory activity (asterisk)” value in experiment [1] was 71.* GLLSGILGAGKKIVCGFSGLC. For the same compound, the “MIC (ug/mL) S. Enteritidis” value in experiment [2] was found to be 128 µg/mL (≈ 64.2 µM).
As for `CC[C@H](C)[C@H](NC(=O)CN)C(=O)N[C@@H](CC(C)C)C(=O)N[C@@H](CC(C)C)C(=O)N[C@@H](CC(N)=O)C(=O)N[C@H](C(=O)N[C@@H](CC(C)C)C(=O)N[C@@H](CCCCN)C(=O)NCC(=O)N[C@@H](C)C(=O)N[C@@H](C)C(=O)N[C@@H](CCCCN)C(=O)N[C@@H](CC(N)=O)C(=O)N[C@H](C(=O)N[C@@H](C)C(=O)NCC(=O)N[C@H](C(=O)N[C@@H](CC(C)C)C(=O)N[C@@H](CC(C)C)C(=O)N[C@@H](CC(=O)O)C(=O)N[C@@H](CCCCN)C(=O)N[C@@H](CC(C)C)C(=O)N[C@@H](CCCCN)C(=O)N[C@@H](CS)C(=O)N[C@@H](CCCCN)C(=O)N[C@H](C(=O)N[C@H](C(=O)NCC(=O)NCC(=O)N[C@@H](CS)C(=O)O)[C@@H](C)O)[C@@H](C)CC)C(C)C)C(C)C)[C@@H](C)O` [PeNi8] (H-GILLNTLKGAAKNVAGVLLDKLKCKITGGC-OH; N-terminus and C-terminus assumed), the “inhibitory activity (asterisk)” value in experiment [1] is reported as 1097.* GILLNTLKGAAKNVAGVLLDKLKCKITGGC.
As for `CC[C@H](C)[C@H](NC(=O)[C@H](CO)NC(=O)[C@@H]1CCCN1C(=O)[C@H](CC(C)C)NC(=O)[C@@H](NC(=O)[C@H](CCCCN)NC(=O)[C@H](C)NC(=O)[C@H](C)NC(=O)[C@H](CC(C)C)NC(=O)CNC(=O)[C@H](C)NC(=O)[C@@H](NC(=O)[C@@H](NC(=O)[C@@H]1CCCN1C(=O)[C@H](CC(C)C)NC(=O)[C@@H](N)Cc1ccccc1)C(C)C)C(C)C)C(C)C)C(=O)N[C@H](C(=O)N[C@@H](CS)C(=O)N[C@@H](C)C(=O)N[C@H](C(=O)N[C@H](C(=O)N[C@@H](CCCCN)C(=O)N[C@@H](CCCCN)C(=O)N[C@@H](CS)C(=O)O)[C@@H](C)O)C(C)C)[C@@H](C)CC` [RaCa15] (H-FLPVVAGLAAKVLPSIICAVTKKC-OH; N-terminus and C-terminus assumed), the “inhibitory activity (asterisk)” value in experiment [1] is on record as 1098.* FLPVVAGLAAKVLPSIICAVTKKC.
For the compound `CC[C@H](C)[C@H](NC(=O)[C@H](CO)NC(=O)[C@@H]1CCCN1C(=O)[C@H](CC(C)C)NC(=O)[C@@H](NC(=O)[C@H](CCCCN)NC(=O)[C@H](C)NC(=O)[C@H](C)NC(=O)[C@H](CC(C)C)NC(=O)CNC(=O)[C@H](C)NC(=O)[C@@H](NC(=O)[C@@H](NC(=O)[C@@H]1CCCN1C(=O)[C@H](CC(C)C)NC(=O)[C@H](Cc1ccccc1)NC(=O)[C@H](CCCNC(=N)N)NC(=O)[C@H](CCC(N)=O)NC(=O)[C@H](CCC(=O)O)NC(=O)[C@@H](N)CCC(=O)O)C(C)C)C(C)C)C(C)C)C(=O)N[C@H](C(=O)N[C@@H](CS)C(=O)N[C@@H](C)C(=O)N[C@H](C(=O)N[C@H](C(=O)N[C@@H](CCCCN)C(=O)N[C@@H](CCCCN)C(=O)N[C@@H](CS)C(=O)O)[C@@H](C)O)C(C)C)[C@@H](C)CC` [RaSy2] (H-EEQRFLPVVAGLAAKVLPSIICAVTKKC-OH; N-terminus and C-terminus assumed), the “inhibitory activity (asterisk)” value in experiment [1] is on record as 673.* EEQRFLPVVAGLAAKVLPSIICAVTKKC.
